Results reported in paper PMC6021032, “Antimycobacterial activity of nitrogen heterocycles derivatives: 7-(pyridine-4-yl)-indolizine derivatives. Part VII^8–12” (Journal of Enzyme Inhibition and Medicinal Chemistry, 2017).
≈ marks a conversion by molar mass, not a printed value.

What was measured:
[1] = In vitro microsomal stability assay; conditions: human, 1 μM, 37 °C
From the text: The stability of compound is expressed as a function of time[41]^,[42]
3.4. In vitro Microsomal Stability Assay
compound to detect NADPH-free degradation. Verapamil and dextromethorphan were
included as control compounds.

[2] = system: Mycobacterium tuberculosis H37Rv; experiment: Primary screen (Cycle 1): MIC, IC50, IC90 under aerobic conditions; format: cell-based
[3] = system: Mtb H37Rv; experiment: LORA parallel plates, oxygen-deprived bacteria incubated under aerobic conditions (normal oxygen); format: cell-based, Mycobacterium tuberculosis; conditions: Mycobacterium tuberculosis, H37RV; for MIC: 120 h, oxygen-deprived bacteria, aerobic 5 d
[4] = system: Mtb; set-up: method as in PMID 24268596; conditions: reported anti-TB activity of compound 1; cited from earlier work
[5] = system: M. tuberculosis H37Rv; experiment: Cycle 2 repeat of MIC, IC50, IC90 under aerobic conditions (lower starting concentrations); format: cell-based, Mycobacterium tuberculosis; conditions: Mycobacterium tuberculosis, revaluation; for IC50 / IC90: aerobic; for MIC: repeated at lower starting concentrations, read-out: MIC aerobic condition
[6] = system: Mycobacterium avium; experiment: MIC against nontuberculous mycobacteria (Alamar blue); format: cell-based; conditions: M. avium
[7] = system: Mycobacterium abscessus; experiment: MIC, IC50, IC90 against nontuberculous mycobacteria (OD590); format: cell-based; conditions: Mycobacteroides abscessus, M. abscessus; for MIC: read-out: MIC
[8] = system: human liver cells (HepG2); experiment: HepG2 cytotoxicity (CellTiter-Glo); format: cell-based; conditions: read-out: IC50 (50% loss of viability), 72 h
[9] = system: THP-1 cell line infected with Mtb; experiment: Intracellular activity assay, luminescence; format: cell-based, Mycobacterium tuberculosis; conditions: Mycobacterium tuberculosis, Mtb-infected THP-1 cells, 72 h; for IC50: read-out: IC50 intracell; for IC90: read-out: IC90 intracell
Description: Since the overall efficacy of any anti TB drug will be improved by its ability to traffic into the macrophage phagosome containing replicating bacteria, we evaluated the intracellular activity of compounds[24]. This was measured by using THP-1 cell line infected with Mtb. Infected cells were exposed to compounds for 72 h and viable bacterial counts were measured using luminescence as a measure of intracellular growth.
Assay (Promega) which uses ATP as an indicator of cell viability. Relative luminescent units (RLU) were measured using a Biotek Synergy 4 plate reader. The dose response curve was fitted using the Levenberg–Marquardt algorithm. The IC50 was defined as the compound […]
Intracellular Activity Assay
The activity of compounds against intracellular bacteria was determined by measuring viability in infected THP-1 cell after 3 days in the presence of test compounds. Compounds were prepared as 10-point three-fold serial dilutions in DMSO. The highest concentration of […]
THP-1 cells were cultured in complete RPMI and differentiated into macrophage-like cells using 80 nM PMA overnight at 37°C, 5% CO2. THP-1 cells were infected with a luminescent strain of H37Rv (which constitutively expresses luxABCDE) at a multiplicity of infection of 1 and incubated overnight at 37°C, 5% CO2. Infected cells were recovered using Accutase/EDTA solution, washed twice with PBS to remove extracellular bacteria and seeded into assay pates. Compound dilutions were added to a final DMSO concentration of 0.5%.
Assay plates were incubated for 72 h at 37°C, 5% CO2. Each run included isoniazid as a control. Relative luminescent units (RLU) were measured using a Biotek Synergy 2 plate reader. The dose response curve was fitted using the Levenberg–Marquardt algorithm. The […]
inhibition of growth respectively.
3. Cycle 3 – Absorption, distribution, metabolism, excretion and toxicity (ADMET)
3.1. Plasma Protein Binding Assay
Compounds were added to human plasma at a fixed concentration of 5 µM. The mixture was dialyzed in a RED device (Rapid Equilibrium Dialysis, Pierce) against PBS and incubated on an orbital shaker for 4 h at 37 °C. Aliquots from plasma and PBS sides were collected; an equal volume of PBS was added to the plasma sample, and an equal volume of plasma was added to the PBS sample. Three volumes of methanol (containing the internal binding standard propranolol) was added to precipitate the proteins and release the compound.
Each compound was tested in duplicate. Samples were centrifuged, the supernatant was […]

[10] = in vitro; conditions: human
[11] = Cytotoxicity, THP-1 cell viability (CellTiter-Glo); conditions: human
[12] = system: Caco-2-cell monolayer; experiment: Caco-2 permeability assay
Description: The Caco-2 cell layer permeability assay is widely used as a more predictive in vitro model of absorption through the intestinal epithelium. […] For B–A permeability, test compound was added to the basal side of the Caco-2 monolayer and the transport of the compound to the apical side monitored. The amount of compound present in each compartment was quantified by LC-MS/MS.
recovered and analyzed by LC-MS/MS.
3.2. Caco-2 Permeability Assay
feeding at 2-day intervals.
Each experiment included the
contained transport buffer at pH 7.4.
3.3. Cytochrome P450 Inhibition Assay
and was < 0.2%. Samples were run in duplicate. Compounds were incubated with human liver

[13] = human
[14] = Plasma protein binding by equilibrium dialysis; conditions: Human plasma protein binding assay
[15] = M. tuberculosis H37Rv, aerobic conditions, primary screen
[16] = Mycobacterium tuberculosis, M. tuberculosis H37Rv, aerobic conditions, primary screen
[17] = MIC value taken from the first MIC assay

COc1ccc2c(c1)[C@]13CCCC[C@@H]1[C@H](C2)N(C)CC3 [Dextromethorphan, reference compound]
microsomal CLint at 1 μM ([1]; s9, NADPH-dependent CLint): 24.3 µL/min/mg | half-life at 1 μM ([1]; s9, NADPH-dependent T1/2, Human): 1.58 h | microsomal CLint at 1 μM ([1]; s9, NADPH-free CLint): < 12.8 µL/min/mg | half-life at 1 μM ([1]; s9, NADPH-free T1/2, Human): > 3 h

4-[3-(4-Bromophenyl)-1-(ethoxycarbonyl)indolizine-7-yl)-1-(2-(4-methoxyphenyl)-2-oxoethyl)pyridine-1-ium bromide [Compound 6g]
IC50 [2, 15]: 35 µM | IC90 [2, 15]: 46 µM | MIC [2, 15]: 50 µM

Cc1ncc([N+](=O)[O-])n1CCO [Metronidazole, reference compound]
IC50 [3]: > 200 µM | IC90 [3]: > 200 µM | MIC [3]: > 200 µM

CCOC(=O)c1cc(C(=O)c2ccc(Br)cc2)n2ccc(-c3cc[n+](CC(=O)c4ccc(C)cc4)cc3)cc12.[Br-] [Compound 6f, 4-(3-(4-Bromobenzoyl)-1-(ethoxycarbonyl)indolizine-7-yl)-1-(2-oxo-2-(p-tolyl)ethyl)pyridin-1-ium bromide]
IC50 [2, 16]: 13 µM | IC90 [2, 16]: 19 µM | MIC [2, 16]: 20 µM | melting point: 283 to 284 °C

CCOC(=O)c1cc(C(=O)c2ccccc2)n2ccc(-c3cc[n+](CC(=O)c4ccc(OC)cc4)cc3)cc12 [Compound 1]
IC90 [4]: 13.1 µM | MIC [4]: 3.91 µM

CCOC(=O)c1cc(C(=O)c2ccc(C)cc2)n2ccc(-c3cc[n+](CC(=O)c4ccc([N+](=O)[O-])cc4)cc3)cc12 [Compound 6k]
IC50 [2, 16]: 200 µM | IC90 [2, 16]: > 200 µM | MIC [2, 16]: > 200 µM

CO[C@H]1/C=C/O[C@@]2(C)Oc3c(C)c(O)c4c(O)c(c(/C=N/N5CCN(C)CC5)c(O)c4c3C2=O)NC(=O)/C(C)=C\C=C\[C@H](C)[C@H](O)[C@@H](C)[C@@H](O)[C@@H](C)[C@H](OC(C)=O)[C@@H]1C [Rifampicin, reference compound]
IC50 [2, 16]: 0.0036 µM | IC90 [2, 16]: 0.0071 µM | MIC [2, 16]: 0.0065 µM (≈ 0.00535 µg/mL) | IC50 [5]: 0.0043 µM | IC90 [5]: 0.0092 µM | MIC [5]: 0.0071 µM (≈ 0.00584 µg/mL) | IC50 [3]: 0.0057 µM | IC90 [3]: 0.011 µM | MIC [3]: 0.021 µM (≈ 0.0173 µg/mL) | MIC ([6]; Mycobacterium avium): 0.098 µM (≈ 0.0806 µg/mL) | IC50 [7]: 2.3 µM | IC90 [7]: 3.6 µM | MIC [7]: 3.6 µM (≈ 2.96 µg/mL)

CN[C@@H]1C[C@H]2O[C@@](C)([C@@H]1OC)n1c3ccccc3c3c4c(c5c6ccccc6n2c5c31)C(=O)NC4 [Staurosporine, reference compound]
IC50 [8]: 0.0086 µM

CCOC(=O)c1cc(C(=O)c2ccc(Cl)cc2)n2ccc(-c3cc[n+](CC(=O)c4cccc(OC)c4)cc3)cc12 [Compound 6d, 4-(3-(4-Chlorobenzoyl)-1-(ethoxycarbonyl)indolizine-7-yl)-1-(2-(3-methoxyphenyl)-2-oxoethyl)pyridin-1-ium]
MIC [2, 17]: 15 µM | IC50 [2, 16]: 14 µM | IC90 [2, 16]: 16 µM | MIC [2, 16]: 15 µM | IC50 [5]: 12 µM | IC90 [5]: 17 µM | MIC [5]: 14 µM | IC50 [3]: 17 µM | IC90 [3]: 27 µM | MIC [3]: 43 µM | MIC ([6]; Mycobacterium avium): 200 µM | IC50 [7]: 81 µM | IC90 [7]: 150 µM | MIC [7]: > 200 µM | IC50 [9]: 11 µM | IC90 [9]: > 50 µM | melting point: 252 to 254 °C | IC50 at 3 days [10]: 3.9 µM

CCOC(=O)c1cc(C(=O)c2ccccc2)n2ccc(-c3cc[n+](CC(=O)c4ccc(C)cc4)cc3)cc12.[Br-] [Compound 6a, 4-(3-Benzoyl-1-(ethoxycarbonyl)indolizine-7-yl)-1-(2-oxo-2-(p-tolyl)ethyl)pyridin-1-ium bromide]
MIC [2, 17]: 14 µM | IC50 [2, 16]: 13 µM | IC90 [2, 16]: 15 µM | MIC [2, 16]: 14 µM | IC50 [5]: 12 µM | IC90 [5]: 23 µM | MIC [5]: 22 µM | IC50 [3]: 9.2 µM | IC90 [3]: 42 µM | MIC [3]: 100 µM | MIC [6]: 50 µM | MIC ([6]; Mycobacterium avium): 50 µM | IC50 [7]: 24 µM | IC90 [7]: 37 µM | MIC [7]: > 200 µM | IC50 [9]: 5.2 µM | IC90 [9]: 15 µM | IC50 at 3 days [11]: 2.9 µM

CCOC(=O)c1cc(C(=O)c2ccccc2)n2ccc(-c3cc[n+](CC(=O)c4cccc(OC)c4)cc3)cc12 [Compound 6b, 4-(3-Benzoyl-1-(ethoxycarbonyl)indolizine-7-yl)-1-(2-(3-methoxyphenyl)-2-oxoethyl)pyridin-1-ium]
IC50 [2, 16]: 39 µM | IC90 [2, 16]: > 50 µM | MIC [2, 16]: > 50 µM | melting point: 255 to 256 °C

CCOC(=O)c1cc(C(=O)c2ccc(OC)cc2)n2ccc(-c3cc[n+](CC(=O)c4ccc(Br)cc4)cc3)cc12 [Compound 6l]
IC50 [2, 16]: > 200 µM | IC90 [2, 16]: > 200 µM | MIC [2, 16]: > 200 µM

CC(C)NC[C@H](O)COc1cccc2ccccc12 (racemic) [Propanolol]
Mean A→B Papp ([12]; Caco-2, apical to basolateral): 12.7 10^−6cm/s | Mean B→A Papp ([12]; Caco-2, basolateral to apical): 25 10^−6cm/s | efflux ratio ([12]; Re = Papp (B→A)/Papp (A→B)): 2 | Mean plasma fraction bound [13]: 79.3% | Mean plasma fraction unbound [13]: 20.7% | Recovery [14]: 93

NNC(=O)c1ccncc1 [Isoniazid, reference compound]
IC50 [9]: 0.18 µM | IC90 [9]: 0.27 µM

CCOC(=O)c1cc(C(=O)c2ccc(Br)cc2)n2ccc(-c3cc[n+](CC(=O)c4ccc(Cl)cc4)cc3)cc12 [Compound 6j]
IC50 [2, 16]: > 200 µM | IC90 [2, 16]: > 200 µM | MIC [2, 16]: > 200 µM

CCOC(=O)c1cc(C(=O)c2ccc(Cl)cc2)n2ccc(-c3cc[n+](CC(=O)c4ccc(F)cc4)cc3)cc12 [Compound 6e, 4-(3-(4-Chlorobenzoyl)-1-(ethoxycarbonyl)indolizine-7-yl)-1-(2-(4-fluorophenyl)-2-oxoethyl)pyridin-1-ium bromide]
IC50 [2, 16]: > 100 µM | IC90 [2, 16]: > 100 µM | MIC [2, 16]: > 100 µM

CCOC(=O)c1cc(C(=O)c2ccc(Br)cc2)n2ccc(-c3cc[n+](CC(=O)c4cccc(OC)c4)cc3)cc12 [Compound 6h, 4-(3-(4-Bromobenzoyl)-1-(ethoxycarbonyl)indolizine-7-yl)-1-(2-(3-methoxyphenyl)-2-oxoethyl)pyridin-1-ium]
MIC [2, 17]: 14 µM | IC50 [2, 16]: 13 µM | IC90 [2, 16]: 14 µM | MIC [2, 16]: 14 µM | IC50 [5]: 15 µM | IC90 [5]: 26 µM | MIC [5]: 27 µM | IC50 [3]: 16 µM | IC90 [3]: 24 µM | MIC [3]: 38 µM | MIC ([6]; Mycobacterium avium): 200 µM | IC50 [7]: > 200 µM | IC90 [7]: > 200 µM | MIC [7]: > 200 µM | IC50 [9]: 13 µM | IC90 [9]: 43 µM | melting point: 256 to 259 °C | IC50 at 3 days [10]: 3.8 µM
